Patent publication EP4620956A1, “PARP1 INHIBITORS” (Zhejiang Yangli Pharmaceutical Technology Co., Ltd., priority 2022, dated 2024)

How the values were obtained:
PARP2 [1] = target: T1, PARP2 (Homo sapiens, UniProt Q9UGN5); assay: PARP2-DNA trapping, fluorescence polarization (FP); assay type: biochemical
T1 construct: purchased BPS 80502

A549 PARP2-KO cell line = assay: Cellular PARylation inhibition, high-content imaging, PARP2-KO; assay type: cell-based; settings: PARylation at the cellular level
PARP6 = target: T2, PARP6 (Homo sapiens, UniProt Q2NL67); assay: Inhibition of PARP6 enzyme activity (chemiluminescence); assay type: biochemical
T2 construct: purchased BPS 80506

PARP3 = target: T3, PARP3 (Homo sapiens, UniProt Q9Y6F1); assay: Inhibition of PARP3 enzyme activity (chemiluminescence); assay type: biochemical
T3 construct: purchased BPS 80503
T3 sequence (Q9Y6F1 1-533): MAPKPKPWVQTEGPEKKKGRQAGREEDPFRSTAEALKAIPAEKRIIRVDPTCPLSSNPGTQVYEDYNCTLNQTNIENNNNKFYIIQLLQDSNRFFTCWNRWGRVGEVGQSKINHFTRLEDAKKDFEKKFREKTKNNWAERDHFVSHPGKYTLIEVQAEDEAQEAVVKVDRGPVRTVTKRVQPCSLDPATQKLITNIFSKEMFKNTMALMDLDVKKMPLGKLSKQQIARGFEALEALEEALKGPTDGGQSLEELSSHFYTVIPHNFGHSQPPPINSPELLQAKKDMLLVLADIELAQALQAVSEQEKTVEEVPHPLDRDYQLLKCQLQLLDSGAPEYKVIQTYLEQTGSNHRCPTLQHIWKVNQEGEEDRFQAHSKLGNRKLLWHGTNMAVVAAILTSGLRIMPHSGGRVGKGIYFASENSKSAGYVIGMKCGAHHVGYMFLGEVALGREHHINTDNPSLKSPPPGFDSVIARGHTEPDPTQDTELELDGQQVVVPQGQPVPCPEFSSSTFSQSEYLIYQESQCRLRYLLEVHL

A549 WT = assay: Cellular PARylation inhibition, high-content imaging, A549 WT; assay type: cell-based; settings: Homo sapiens, PARylation at the cellular level
Experimental: The inhibitory effect of the compounds on PARP1/PARP2 enzyme activity at the cellular level was detected using high-content imaging. A549 WT, PARP1-KO and PARP2-KO cell lines were established in-house, and the cells were revived. After the cells were stable, a sufficient number of cells were collected and 100 µL of the cell suspension was seeded into a 96-well plate. The next day, the example compounds with serially diluted concentrations were added. […] The plate was incubated for 1.5 hours (A549 WT and PARP2-KO cell lines) or 2 hours (PARP1-KO cell line). After removing the supernatant, 0.4 mM H2O2 was added and incubation was carried out for 10 minutes (A549 WT and PARP2-KO cell lines) or 1.5 mM H2O2 was added and incubation was carried out for 15 minutes (PARP1-KO cell line) to induce extensive cellular DNA damage. After removing the supernatant, the cells were fixed with 4% paraformaldehyde for 20 minutes, followed by treatment with 0.5% Triton X-100 for 20 minutes to increase the permeability of the cell membrane. After that, the cells were incubated with 3% BSA for 1 hour to prevent non-specific binding. […] The cell nuclei were stained for 30 minutes by adding 50 µL DAPI (invitrogen, R37606). After washing twice with PBS, images were acquired on OPERETTA CLS™ (PE) by scanning the cells under a 20x water objective lens in non-confocal mode, with 5 fields of view captured per well. […] The inhibition rate was calculated using the fluorescence values from the Max and Min wells, and the dose-response curve was fitted using the analysis software GraphPad Prism 5 to obtain the IC50 value of each compound for the enzyme activity.

DLD-1 BRCA2^-/- = assay: Anti-proliferative activity (CellTiter-Glo, 7 days), DLD-1 BRCA2-/-; assay type: cell-based, human
PARP1 = target: T4, PARP1 (Homo sapiens, UniProt P09874); assay: Inhibition of PARP1 enzyme activity (chemiluminescence); assay type: biochemical
T4 construct: purchased BPS 80501

PARP5a = target: T5, PARP5a (Homo sapiens, UniProt O95271); assay: Inhibition of PARP5a enzyme activity (chemiluminescence); assay type: biochemical
T5 construct: purchased BPS 80504

DLD-1 WT = assay: Anti-proliferative activity (CellTiter-Glo, 7 days), DLD-1 WT; assay type: cell-based, human
Experimental: The anti-proliferation experiment of the compounds on tumour cells adopted the most widely used ATP concentration-based detection method at present. MDA-MB-231 and MDA-MB-436 cell lines were obtained from ATCC, DLD-1 human colourectal adenocarcinoma epithelial cells and DLD-1 BRCA2^-/- cells were obtained from Horizon, and the cells were revived. After the cells were stable, the cells were collected. When the viable cell count exceeded 90%, 450-500 cells were seeded into a 384-well plate. The next day, the example compounds with serially diluted concentrations were added. Only buffer was added to the Max well, and 50 µM AZD2281 was added to the Min well. The plate was incubated for 7 days, and on the eighth day, CellTiter-Glo® reagent (Promega, G7573) was added. The plate was incubated at room temperature for 30 minutes, and the values were read on Envision (PE). The inhibition rate was calculated using the fluorescence values from the Max and Min wells, and the dose-response curve was fitted using the analysis software GraphPad Prism 5 to obtain the IC50 value of each compound for the enzyme activity.

PARP2 [2] = target: T1, PARP2; assay: DNA trapping capability of PARP2 (HTRF); assay type: biochemical
MDA-MB-231 = assay: Anti-proliferative activity (CellTiter-Glo, 7 days), MDA-MB-231; assay type: cell-based, human
[3] = ratio relative to the PARP1 enzyme activity

T1 sequence (Q9UGN5 whole entry): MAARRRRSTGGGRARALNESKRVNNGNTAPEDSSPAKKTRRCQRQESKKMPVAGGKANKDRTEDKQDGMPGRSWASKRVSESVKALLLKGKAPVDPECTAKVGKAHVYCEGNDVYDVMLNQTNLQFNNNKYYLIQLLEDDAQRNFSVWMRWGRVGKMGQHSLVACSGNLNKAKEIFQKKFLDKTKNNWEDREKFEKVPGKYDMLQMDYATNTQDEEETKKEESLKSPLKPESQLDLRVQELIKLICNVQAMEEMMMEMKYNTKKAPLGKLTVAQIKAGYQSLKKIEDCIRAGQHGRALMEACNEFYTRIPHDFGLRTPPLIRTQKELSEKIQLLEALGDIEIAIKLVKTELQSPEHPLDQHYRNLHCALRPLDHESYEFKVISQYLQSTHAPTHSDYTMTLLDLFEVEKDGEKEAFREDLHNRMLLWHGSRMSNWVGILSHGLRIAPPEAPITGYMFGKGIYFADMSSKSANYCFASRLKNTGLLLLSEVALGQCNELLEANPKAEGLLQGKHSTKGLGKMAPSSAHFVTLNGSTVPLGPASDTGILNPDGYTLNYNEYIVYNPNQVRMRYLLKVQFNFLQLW
T2 sequence (Q2NL67 whole entry): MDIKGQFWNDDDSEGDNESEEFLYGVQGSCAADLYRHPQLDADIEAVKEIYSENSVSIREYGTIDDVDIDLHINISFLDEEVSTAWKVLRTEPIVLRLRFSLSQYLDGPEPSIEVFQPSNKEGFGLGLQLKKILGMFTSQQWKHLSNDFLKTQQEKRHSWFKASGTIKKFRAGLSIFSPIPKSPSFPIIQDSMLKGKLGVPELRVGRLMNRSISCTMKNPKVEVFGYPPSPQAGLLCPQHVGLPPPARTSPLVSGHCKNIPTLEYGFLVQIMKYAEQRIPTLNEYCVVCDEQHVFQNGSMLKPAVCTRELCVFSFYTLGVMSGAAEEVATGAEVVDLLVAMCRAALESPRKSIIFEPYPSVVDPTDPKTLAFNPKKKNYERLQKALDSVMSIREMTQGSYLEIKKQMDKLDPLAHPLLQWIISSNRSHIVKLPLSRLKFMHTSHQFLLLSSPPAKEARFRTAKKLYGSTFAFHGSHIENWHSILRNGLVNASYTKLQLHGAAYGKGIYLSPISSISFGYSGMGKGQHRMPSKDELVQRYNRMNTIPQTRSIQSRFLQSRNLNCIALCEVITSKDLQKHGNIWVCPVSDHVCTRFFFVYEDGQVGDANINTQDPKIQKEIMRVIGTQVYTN
T4 sequence (P09874 whole entry): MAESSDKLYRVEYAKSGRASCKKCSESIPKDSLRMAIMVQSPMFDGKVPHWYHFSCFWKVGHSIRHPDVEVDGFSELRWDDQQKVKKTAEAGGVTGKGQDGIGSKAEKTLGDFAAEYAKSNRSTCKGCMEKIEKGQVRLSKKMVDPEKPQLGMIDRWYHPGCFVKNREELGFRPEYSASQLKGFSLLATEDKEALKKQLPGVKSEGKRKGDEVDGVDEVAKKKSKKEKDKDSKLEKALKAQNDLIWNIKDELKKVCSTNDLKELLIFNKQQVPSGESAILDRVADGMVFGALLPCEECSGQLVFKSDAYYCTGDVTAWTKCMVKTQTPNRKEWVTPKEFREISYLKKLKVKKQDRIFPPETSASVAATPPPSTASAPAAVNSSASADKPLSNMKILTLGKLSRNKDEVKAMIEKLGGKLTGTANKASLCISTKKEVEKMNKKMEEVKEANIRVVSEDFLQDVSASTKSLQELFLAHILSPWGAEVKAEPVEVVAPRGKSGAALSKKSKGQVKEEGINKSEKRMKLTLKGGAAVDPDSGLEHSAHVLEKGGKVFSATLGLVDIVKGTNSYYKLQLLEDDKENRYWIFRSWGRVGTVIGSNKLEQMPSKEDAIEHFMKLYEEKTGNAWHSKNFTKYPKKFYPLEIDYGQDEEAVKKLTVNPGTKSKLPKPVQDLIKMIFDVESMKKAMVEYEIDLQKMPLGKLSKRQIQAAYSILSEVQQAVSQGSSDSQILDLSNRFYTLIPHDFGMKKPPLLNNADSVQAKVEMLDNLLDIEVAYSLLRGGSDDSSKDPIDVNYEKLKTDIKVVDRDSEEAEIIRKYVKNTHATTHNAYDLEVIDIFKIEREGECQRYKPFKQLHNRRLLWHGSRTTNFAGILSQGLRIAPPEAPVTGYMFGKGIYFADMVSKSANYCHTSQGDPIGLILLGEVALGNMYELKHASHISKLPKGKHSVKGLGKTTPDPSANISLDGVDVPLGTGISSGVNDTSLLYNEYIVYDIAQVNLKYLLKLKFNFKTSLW
T5 sequence (O95271 1001-1327): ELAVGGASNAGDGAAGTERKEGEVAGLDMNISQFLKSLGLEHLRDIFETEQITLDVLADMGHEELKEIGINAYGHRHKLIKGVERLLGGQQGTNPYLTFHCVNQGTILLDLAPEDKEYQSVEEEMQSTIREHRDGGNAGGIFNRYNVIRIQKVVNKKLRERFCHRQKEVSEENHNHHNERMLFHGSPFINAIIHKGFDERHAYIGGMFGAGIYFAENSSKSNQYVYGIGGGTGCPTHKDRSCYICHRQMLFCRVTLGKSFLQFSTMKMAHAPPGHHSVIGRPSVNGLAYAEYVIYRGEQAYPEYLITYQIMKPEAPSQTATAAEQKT

Molecule `[2H]C([2H])([2H])NC(=O)c1ccc(N2CCN(Cc3cnc4c(N)c(CC)c(=O)[nH]c4c3)CC2)c(F)n1` [Example 4, 5-(4-((8-Amino-7-ethyl-6-oxo-5,6-dihydro-1,5-naphthyridin-3-yl)methyl)piperazin-1-yl)-6-fluoro-N-(methyl-d3)picolinamide] has a Bottom (PARP2 [1]; PARP2, 0.25 hour) of 4.3, an EC50 (PARP2 [1]; PARP2, 0.25 hour) of 2.33 µM and a Hillslope (PARP2 [1]; PARP2, 0.25 hour) of 1.4. The Top (PARP2 [1]; PARP2, 0.25 hour) was “= 100.0”, the Bottom (PARP2 [1]; PARP2, 0.5 hour) was 1.0 and the EC50 (PARP2 [1]; PARP2, 0.5 hour) was 5.47 µM. The Hillslope (PARP2 [1]; PARP2, 0.5 hour) was 1.9, the Top (PARP2 [1]; PARP2, 0.5 hour) was “= 100.0” and the Bottom (PARP2 [1]; PARP2, 1 hour) was 0.8. The EC50 (PARP2 [1]; PARP2, 1 hour) was > 10 µM, the Hillslope (PARP2 [1]; PARP2, 1 hour) was 2.1 and the Top (PARP2 [1]; PARP2, 1 hour) was “= 100.0”. The EC50 (PARP2 [1]; PARP2, 2 hour) was > 10 µM, the EC50 (PARP2 [1]; PARP2, 4 hour) was > 10 µM and the EC50 (PARP2 [1]; PARP2, 8 hour) was > 10 µM. For the same molecule, the EC50 (PARP2 [1]; PARP2, 24 hour) was > 10 µM, the EC50 (PARP2 [1]; PARP2, 48 hour) was > 10 µM and the IC50 (A549 PARP2-KO cell line; Homo sapiens, A549, read-out: PARP2-KO IC50) was 0.0077 µM. For the same molecule, the “PARP1 KO/PARP2 KO selectivity fold” value (A549 PARP2-KO cell line) was >5222 fold, the IC50 (PARP6; enzyme activity) was > 10 µM and the “PARP6 multiple vs PARP1” value (PARP6; [3]) was “∞”. The IC50 (PARP3; enzyme activity) was 7.65 µM, the “PARP3 multiple vs PARP1” value (PARP3; [3]) was 15,929 and the IC50 (A549 WT) was 0.0052 µM. For the same molecule, the “BRCA2 mutation/WT selectivity fold” value (DLD-1 BRCA2^-/-; DLD-1 WT vs DLD-1 BRCA2^-/-) was >2,178 fold, the IC50 (DLD-1 BRCA2^-/-; Homo sapiens, DLD-1, 168 h, BRCA2-mutated, 7 days) was 0.00459 µM and the IC50 (PARP1) was 0.00048 µM. For the same molecule, the PARP1/2 selectivity fold (PARP1; PARP2 vs PARP1) was 39 fold, the IC50 (PARP5a; enzyme activity) was 4.06 µM and the “PARP5a multiple vs PARP1” value (PARP5a; [3]) was 8,467. The “inhibition on cell proliferation at the highest concentration” value (DLD-1 WT; BRCA2-normal DLD-1 cell line, 10 µM) was “no detectable inhibition”, the IC50 (DLD-1 WT; Homo sapiens, DLD-1, 168 h, BRCA2-normal, 7 days) was > 10 µM and the EC50 (PARP2 [2]) was 0.382 µM. For the same molecule, the “inhibition on cell proliferation at the highest concentration” value (MDA-MB-231; BRCA1-normal MDA-MB-231 cell line, 10 µM) was “no detectable inhibition” and the IC50 (MDA-MB-231; Homo sapiens, MDA-MB-231, 168 h, BRCA1-normal, 7 days, read-out: MDA-MB-231 IC50) was > 10 µM.
